From patent publication US8969516B2, “Method of hydrolysis of peptide bond” (priority 2006, dated 2015)

Assays:
[1] = MALDI-TOF screening of Ni^2+ dependent hydrolysis in a combinatorial peptide library; assay type: physicochemical; settings: CH3CO-Gly-Ala-Ser-X-His-Z-Lys-Phe-Leu-NH2 library, Ni^2+ 2 mM, pH 8.2, 10 mM Tris, score=24/tm
In short: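 Ni2+ 2 mM, peptide pool 1 mM (total), 10 mM Tris pH 8.2; 37 °C and 45 °C in parallel; MS aliquots at 2/4/6/8 h; products detected visually. X: all proteinogenic residues except Asp, Glu, Cys; Z: all except Cys.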

[2] = Dependence of rate of hydrolysis of the Ala-Ser bond on buffer and Ni^2+ excess (HPLC); assay type: physicochemical; settings: pH 8.2, 1 mM peptide; for κ ± S.D., 1st order rate constant for the hydrolysis: 25° C., 1.2 mM Ni^2+
Description: The title peptide was synthesised according to a standard Fmoc protocol (Fields, Meth. Enzymol. Vol. 289). The pH dependence of the formation of the active complex of the title peptide, represented by the structure (III) in Scheme 2, was determined by potentiometry at 25° C., as described in Krezel et al., Chem. Res. Toxicol. 2003, 16, 855-864. The rate of peptide hydrolysis was studied by HPLC (as in Example 2) in a series of mixed phosphate/Tris/Borax buffers (40/20/20 mM) at 25° C. and pH between 6 and 12.5, with peptide and Ni^2+ concentrations equal to 1 mM. As presented in FIG. 1, the rate of hydrolysis matched the formation of the active complex quantitatively.
The dependence of the rate of hydrolysis on the buffer used was studied at 25° C. separately in 20 mM Tris, Hepes and sodium phosphate buffers, all at pH 8.2, for 1 mM peptide and 1.2 mM Ni^2+.
The dependence of the rate of hydrolysis of the title peptide on the molar ratio of Ni^2+ to peptide was studied at 25° C. and pH 8.2, for 1 mM peptide. The reaction rate constant k was 4.3±0.2 s^−1×10^−5 for the Ni^2+ to peptide molar ratio of 1.2 and 4.72±0.01 s^−1×10^−5 for the Ni^2+ to peptide molar ratio of 5.

[3] = Quantitative kinetic studies of Ni^2+ dependent peptide hydrolysis by HPLC; assay type: physicochemical; settings: 1 mM peptide, 1 mM Ni^2+, 45° C., pH 8.2 (20 mM Tris)
Description: The title octapeptides were synthesised according to a typical Fmoc protocol (Fields, Meth. Enzymol. Vol. 289). The list of variable BXHZ sequences is given in Table 2, along with 1st order rate constants determined at 45° C., pH 8.2 (20 mM Tris buffer) for 1 mM peptide and Ni^2+ concentrations. […] The substrate and product peaks were identified by MALDI-TOF MS.

proteinase = test: Activity of SPI2 released from the recombinant polypeptide (Chavira et al.); assay type: biochemical; settings: after Ni^2+ cleavage on Ni-NTA-agarose, 100 mM Hepes pH 8.2, 50° C., 19 hours
Description: The recombinant polypeptide from Example 4 (100 μl of a 140 μM solution) was loaded on 200 μl of Ni-NTA-agarose (Invitrogen), according to the manufacturer's instruction, and incubated in 100 mM Hepes buffer, pH 8.2 with 5 mM Ni^2+ at 50° C. without shaking. The incubation buffer (500 μl) was removed after 19 hours. Then the unreacted polypeptide and the cleaved off SRHW-AP-HHHHHH domain were washed from the column with two 400 μl portions of 200 mM imidazole, pH 7.4. The samples were analyzed by HPLC under conditions given in Example 4. FIG. 4 presented chromatograms of the control recombinant polypeptide, incubation buffer and both wash fractions. Masses of polypeptides were measured by ESI-MS. The yield of purified SPI2 was 88%. SPI2 obtained from this procedure was fully active, as determined according to […] et al., Anal. Biochem. 1984, 136, 446-450.

Substance | hydrolysis score from MALDI-TOF screening ([1]; 37° C.) | hydrolysis score from MALDI-TOF screening ([1]; 45° C.) | k ± S.D., 1st order rate constant for the hydrolysis [3] | further results
Ac-GASRHWKFL-NH2 [SRHW, CH3CO-Gly-Ala-Ser-Arg-His-Trp-Lys-Phe-Leu-NH2] | 12 (a score of 12, if it was seen to be partially hydrolysed at 2 hours) | 12 (a score of 12, if it was seen to be partially hydrolysed at 2 hours) |  | κ ± S.D., 1st order rate constant for the hydrolysis ([2]; 20 mM Hepes): 5.9 ± 0.8 s^−1 × 10^−5; κ ± S.D., 1st order rate constant for the hydrolysis ([2]; 20 mM Tris): 4.8 ± 0.5 s^−1 × 10^−5; κ ± S.D., 1st order rate constant for the hydrolysis ([2]; 20 mM phosphate): 0.74 ± 0.09 s^−1 × 10^−5; reaction rate constant k ([2]; Ni^2+ to peptide molar ratio of 1.2, 25° C.): 4.3±0.2 s^−1×10^−5; reaction rate constant k ([2]; Ni^2+ to peptide molar ratio of 5, 25° C.): 4.72±0.01 s^−1×10^−5
Ac-GATHHKKFL-NH2 [-THHK-] |  |  | 1.01 ± 0.09 s^−1 · 10^−5 | 
SPI2: single domain Kazal type proteinase inhibitor, released from (SPI2)-SRHW-AP-HHHHHH recombinant polypeptide |  |  |  | activity of SPI2 obtained from cleavage on solid support (proteinase): fully active
Ac-GASWHIKFL-NH2 [-SWHI-] |  |  | 3 ± 1 s^−1 · 10^−5 | 
Ac-GASRHWKFL-NH2 [-SRHW-] |  |  | 28.8 ± 0.8 s^−1 · 10^−5 | 
Ac-GASPHGKFL-NH2 [SPHG] | 0 (a score of 0 if no trace of the product of hydrolysis was seen after 8 hours of incubation) | 0 (a score of 0 if no trace of the product of hydrolysis was seen after 8 hours of incubation) |  | 
Ac-GASSHFKFL-NH2 [SSHF] | 3 (a score of 3 for detection at 8 hours) | 3 (a score of 3 for detection at 8 hours) |  | 
